Molecular target: T1, human Edg-1 (S1P1) (Homo sapiens, UniProt P21453)
T1 construct: expressed in transfected cells; host or cells: HEK-293
Assay: S1P1 binding inhibition test (membrane, [33P]-S1P)
Details: compound 10 μM; [33P]-S1P 0.1 nM; human Edg-1 (S1P1) HEK-293 membrane fraction; read-out: Binding test (membrane) % inhibition (10 μM)
Description: The membrane fraction was obtained by treating the cells with a solubilizing buffer (1 mM Tris/HCl, pH 7.2) for 10 minutes on ice, centrifuging at 1000×g for 5 minutes to remove insoluble fractions, and then centrifuging at 40000×g for 30 minutes at 4° C. The resulting membrane fraction was dissolved in a binding buffer (20 mM Tris-HCl, pH 7.4, 100 mM NaCl, 15 mM NaF, 2 mM deoxypyridoxine, 4 mg/mL fatty acid-free BSA), and then [^33P]-S1P (manufactured by ARC, final concentration 0.1 nM) and a DMSO solution (final concentration of the compound 10^−5 M, final concentration of DMSO 0.1%) of the test compound were added. Thereafter, the mixture was stirred and then treated for one hour at 30° C. Using a harvester, the membrane fraction was harvested onto unifilter-96 GF/C filter (manufactured by Perkin Elmer), washing was carried out four times with the binding buffer, and the filter was dried. Twenty five μL Microscint 0 (manufactured by Perkin Elmer) was added, and radioactivity was measured using Top Count NXT (manufactured by Packard) to calculate the amount (A) of [^33P]-S1P bound to the membrane fraction at the time when the compound was added.
The same procedure was carried out in the absence of the test compound, and the amount (B) of [^33P]-S1P bound was calculated. Further, the same procedure was carried out in the absence of the test compound by use of HEK-293 cells to which no Edg-1 (S1P1) gene was introduced, and the background amount (C) of [^33P]-S1P bound was calculated.
Inhibition rate (%)=[1−(A−C)/(B−C)]×100.
Moreover, the concentration required for a test compound to produce 50% inhibition of the binding caused in the absence of the test compound was also calculated (IC50). The above membrane system binding test was performed in the presence of a test compound at various concentrations to calculate the inhibition rate of Edg-1(S1P1) binding at each concentration according to the above equation, followed by calculating an IC50 value for each compound with data analysis software, Origin (Lightstone Corp., Japan).

T1 sequence (P21453 whole entry): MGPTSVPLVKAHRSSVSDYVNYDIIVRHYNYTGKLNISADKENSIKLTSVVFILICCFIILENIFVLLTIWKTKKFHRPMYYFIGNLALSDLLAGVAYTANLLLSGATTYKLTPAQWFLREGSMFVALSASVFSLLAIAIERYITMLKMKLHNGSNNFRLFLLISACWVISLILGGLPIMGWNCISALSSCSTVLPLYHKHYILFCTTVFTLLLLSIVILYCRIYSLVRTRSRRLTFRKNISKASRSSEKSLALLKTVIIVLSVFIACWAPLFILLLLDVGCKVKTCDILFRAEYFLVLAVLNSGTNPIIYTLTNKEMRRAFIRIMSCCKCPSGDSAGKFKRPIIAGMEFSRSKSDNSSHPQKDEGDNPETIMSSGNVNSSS

Structure (SMILES)	inhibition at 10 µM [%]
CCn1c(C(C)NS(=O)(=O)c2ccc(C(C)=O)cc2)cnc1Oc1ccc(C)cc1 (stereo not drawn) [Compound 3]	96.7
CCn1c(C(C)NS(=O)(=O)c2ccccc2)cnc1Oc1ccc(C)cc1 (stereo not drawn) [Compound 4]	72.8
CCn1c(C(C)NS(=O)(=O)c2ccc(Br)cc2)cnc1Oc1ccc(C)cc1 (stereo not drawn) [Compound 5]	106
CCn1c(C(C)NS(=O)(=O)c2ccc(C(C)(C)C)cc2)cnc1Oc1ccc(C)cc1 (stereo not drawn) [Compound 6]	54.7
CCn1c(C(C)NS(=O)(=O)c2ccccc2Br)cnc1Oc1ccc(C)cc1 (stereo not drawn) [Compound 7]	63.3
CCn1c(C(C)NS(=O)(=O)c2cccc(Br)c2)cnc1Oc1ccc(C)cc1 (stereo not drawn) [Compound 9]	113
CCn1c(C(C)NS(=O)(=O)c2ccc(Br)cc2OC(F)(F)F)cnc1Oc1ccc(C)cc1 (stereo not drawn) [Compound 10]	68.6
CCn1c(C(C)NS(=O)(=O)c2ccc(Cl)cc2)cnc1Oc1ccc(C)cc1 (stereo not drawn) [Compound 11]	103
CCn1c(C(C)NS(=O)(=O)c2ccc(Cl)c3nonc23)cnc1Oc1ccc(C)cc1 (stereo not drawn) [Compound 12]	68.1
CCn1c(C(C)NS(=O)(=O)c2cccc(C#N)c2)cnc1Oc1ccc(C)cc1 (stereo not drawn) [Compound 13]	64.4
CCn1c(C(C)NS(=O)(=O)c2sc3ccc(Cl)cc3c2C)cnc1Oc1ccc(C)cc1 (stereo not drawn) [Compound 14]	76.5
CCn1c(C(C)NS(=O)(=O)c2ccc(C)c(Cl)c2)cnc1Oc1ccc(C)cc1 (stereo not drawn) [Compound 15]	108
CCn1c(C(C)NS(=O)(=O)c2cc(C)c(Cl)cc2C)cnc1Oc1ccc(C)cc1 (stereo not drawn) [Compound 16]	109
CCn1c(C(C)NS(=O)(=O)c2cc(Cl)ccc2Cl)cnc1Oc1ccc(C)cc1 (stereo not drawn) [Compound 17]	80
CCn1c(C(C)NS(=O)(=O)c2c(Cl)cccc2Cl)cnc1Oc1ccc(C)cc1 (stereo not drawn) [Compound 18]	72.8
CCn1c(C(C)NS(=O)(=O)c2ccc(OC)c(OC)c2)cnc1Oc1ccc(C)cc1 (stereo not drawn) [Compound 19]	87.3
CCc1ccc(S(=O)(=O)NC(C)c2cnc(Oc3ccc(C)cc3)n2CC)cc1 (stereo not drawn) [Compound 21]	66.8
CCn1c(C(C)NS(=O)(=O)c2ccc(F)cc2)cnc1Oc1ccc(C)cc1 (stereo not drawn) [Compound 22]	92.1
CCn1c(C(C)NS(=O)(=O)c2ccc(OC)cc2)cnc1Oc1ccc(C)cc1 (stereo not drawn) [Compound 23]	98.6
CCn1c(C(C)NS(=O)(=O)c2ccc(S(C)(=O)=O)cc2)cnc1Oc1ccc(C)cc1 (stereo not drawn) [Compound 25]	62
CCn1c(C(C)NS(=O)(=O)c2cccc3ccccc23)cnc1Oc1ccc(C)cc1 (stereo not drawn) [Compound 27]	68.5

Structure (SMILES)	inhibition at 10 µM [%]
CCn1c(C(C)NS(=O)(=O)c2ccc3ccccc3c2)cnc1Oc1ccc(C)cc1 (stereo not drawn) [Compound 28]	114
CCn1c(C(C)NS(=O)(=O)CCc2cccc3ccccc23)cnc1Oc1ccc(C)cc1 (stereo not drawn) [Compound 29]	52.5
CCn1c(C(C)NS(=O)(=O)c2c(F)c(F)c(F)c(F)c2F)cnc1Oc1ccc(C)cc1 (stereo not drawn) [Compound 30]	75.8
CCn1c(C(C)NS(=O)(=O)c2ccc(I)cc2)cnc1Oc1ccc(C)cc1 (stereo not drawn) [Compound 31]	93.3
CCn1c(C(C)NS(=O)(=O)/C=C/c2ccccc2)cnc1Oc1ccc(C)cc1 (stereo not drawn) [Compound 32]	93.5
CCn1c(C(C)NS(=O)(=O)c2cc(Cl)c(Cl)cc2Cl)cnc1Oc1ccc(C)cc1 (stereo not drawn) [Compound 33]	115
CCn1c(C(C)NS(=O)(=O)c2ccc(C)cc2)cnc1Oc1ccc(C)cc1 (stereo not drawn) [Compound 35]	98.1
CCn1c(C(C)NS(=O)(=O)c2cccc(C(F)(F)F)c2)cnc1Oc1ccc(C)cc1 (stereo not drawn) [Compound 37]	98.5
CCn1c(C(C)NS(=O)(=O)c2ccccc2C)cnc1Oc1ccc(C)cc1 (stereo not drawn) [Compound 38]	79.8
CCn1c(C(C)NS(=O)(=O)c2ccc(OC(F)(F)F)cc2)cnc1Oc1ccc(C)cc1 (stereo not drawn) [Compound 39]	64.8
C=Cc1ccc(S(=O)(=O)NC(C)c2cnc(Oc3ccc(C)cc3)n2CC)cc1 (stereo not drawn) [Compound 40]	81.2
CCn1c(C(C)NS(=O)(=O)c2cccc(C)c2)cnc1Oc1ccc(C)cc1 (stereo not drawn) [Compound 41]	82.3
CCn1c(C(C)NS(=O)(=O)c2ccc(C(F)(F)F)cc2)cnc1Oc1ccc(C)cc1 (stereo not drawn) [Compound 44]	93.5
CCn1c(C(C)NS(=O)(=O)c2cc(C)ccc2C)cnc1Oc1ccc(C)cc1 (stereo not drawn) [Compound 45]	85.8
CCn1c(C(C)NS(=O)(=O)c2ccc(-c3csnn3)s2)cnc1Oc1ccc(C)cc1 (stereo not drawn) [Compound 46]	58.8
CCn1c(C(C)NS(=O)(=O)c2ccc(C(=O)OC)n2C)cnc1Oc1ccc(C)cc1 (stereo not drawn) [Compound 51]	93.7
CCCc1ccc(S(=O)(=O)NC(C)c2cnc(Oc3ccc(C)cc3)n2CC)cc1 (stereo not drawn) [Compound 56]	57.3
CCn1c(C(C)NS(=O)(=O)c2ccc(Cl)c(Cl)c2Cl)cnc1Oc1ccc(C)cc1 (stereo not drawn) [Compound 57]	103
CCn1c(C(C)NS(=O)(=O)c2c(C)c(C)cc(C)c2C)cnc1Oc1ccc(C)cc1 (stereo not drawn) [Compound 58]	66.4
CCn1c(C(C)NS(=O)(=O)c2cccc(Cl)c2Cl)cnc1Oc1ccc(C)cc1 (stereo not drawn) [Compound 59]	101

Next, values leading:

inhibition at 10 µM [%]	Structure (SMILES)
64.5	CCn1c(C(C)NS(=O)(=O)c2c(C)cccc2Cl)cnc1Oc1ccc(C)cc1 (stereo not drawn) [Compound 60]
85.6	CCn1c(C(C)NS(=O)(=O)c2cc(C(F)(F)F)cc(C(F)(F)F)c2)cnc1Oc1ccc(C)cc1 (stereo not drawn) [Compound 62]
95.3	CCn1c(C(C)NS(=O)(=O)c2cc(Cl)cc(Cl)c2)cnc1Oc1ccc(C)cc1 (stereo not drawn) [Compound 63]
96.7	CCn1c(C(C)NS(=O)(=O)c2cccc(Cl)c2C)cnc1Oc1ccc(C)cc1 (stereo not drawn) [Compound 64]
106	CCn1c(C(C)NS(=O)(=O)c2ccc(F)c(Cl)c2)cnc1Oc1ccc(C)cc1 (stereo not drawn) [Compound 65]
89.9	CCn1c(C(C)NS(=O)(=O)c2cccc(OC)c2)cnc1Oc1ccc(C)cc1 (stereo not drawn) [Compound 66]
84.6	CCn1c(C(C)NS(=O)(=O)c2cc(F)c(Br)cc2F)cnc1Oc1ccc(C)cc1 (stereo not drawn) [Compound 67]
64.7	CCn1c(C(C)NS(=O)(=O)c2c(C)cc(OC)c(C)c2C)cnc1Oc1ccc(C)cc1 (stereo not drawn) [Compound 68]
82.9	CCn1c(C(C)NS(=O)(=O)c2cc(Br)ccc2OC)cnc1Oc1ccc(C)cc1 (stereo not drawn) [Compound 69]
56.8	CCn1c(C(C)NS(=O)(=O)c2cc(F)ccc2C)cnc1Oc1ccc(C)cc1 (stereo not drawn) [Compound 70]
72	CCn1c(C(C)NS(=O)(=O)c2c(C)c(C)c(C)c(C)c2C)cnc1Oc1ccc(C)cc1 (stereo not drawn) [Compound 71]
90.1	CCn1c(C(C)NS(=O)(=O)c2ccc(Br)c(Br)c2)cnc1Oc1ccc(C)cc1 (stereo not drawn) [Compound 72]
74.3	CCn1c(C(C)NS(=O)(=O)c2cc(C)ccc2OC)cnc1Oc1ccc(C)cc1 (stereo not drawn) [Compound 73]
101	CCn1c(C(C)NS(=O)(=O)c2ccc(Cl)c(Cl)c2)cnc1Oc1ccc(C)cc1 (stereo not drawn) [Compound 74, 3,4-Dichloro-N-[1-(3-ethyl-2(4-methylphenoxy)-3H-imidazol-4-yl)-ethyl]-benzenesulfonamide]
89.3	CCn1c(C(C)NS(=O)(=O)c2ccc(C#N)cc2)cnc1Oc1ccc(C)cc1 (stereo not drawn) [Compound 76]
66.7	CCn1c(C(C)NS(=O)(=O)c2c(Cl)cc(Cl)cc2Cl)cnc1Oc1ccc(C)cc1 (stereo not drawn) [Compound 78]
90.1	CCn1c(C(C)NS(=O)(=O)c2ccc(Cl)cc2Cl)cnc1Oc1ccc(C)cc1 (stereo not drawn) [Compound 79]
61.2	CCn1c(C(C)NS(=O)(=O)c2ccc(F)cc2F)cnc1Oc1ccc(C)cc1 (stereo not drawn) [Compound 80]
83.1	CCn1c(C(C)NS(=O)(=O)c2cc(OC)ccc2OC)cnc1Oc1ccc(C)cc1 (stereo not drawn) [Compound 81]
72.4	CCn1c(C(C)NS(=O)(=O)c2cccc(Cl)c2)cnc1Oc1ccc(C)cc1 (stereo not drawn) [Compound 84]
74.4	CCn1c(C(C)NS(=O)(=O)c2cc(F)cc(Cl)c2C)cnc1Oc1ccc(C)cc1 (stereo not drawn) [Compound 86]
65.6	CCc1cc(Br)ccc1S(=O)(=O)NC(C)c1cnc(Oc2ccc(C)cc2)n1CC (stereo not drawn) [Compound 87]
74.2	CCn1c(C(C)NS(=O)(=O)c2ccc(Br)cc2C)cnc1Oc1ccc(C)cc1 (stereo not drawn) [Compound 88]
71.8	CCn1c(C(C)NS(=O)(=O)c2ccc(C#N)cc2Cl)cnc1Oc1ccc(C)cc1 (stereo not drawn) [Compound 89]

Same assay, conditions: read-out: Binding test (membrane) % inhibition (10 μM)

Structure (SMILES)	inhibition at 10 µM [%]
CCn1c(C(C)NS(=O)(=O)c2ccc(F)cc2Cl)cnc1Oc1ccc(C)cc1 (stereo not drawn) [Compound 82]	64.2

Source: US7994204B2, “Binding inhibitor of sphingosine-1-phosphate” (Taisho Pharmaceutical Co., Ltd, priority 2006, dated 2011)
